The values that follow are results of earlier work, collected in patent publication US20030092754A1, “External preparation for skin diseases containing nitroimidazole” (priority 1999, published 2003).

In data set [1] the test system is leukocyte migration.
Data set [2] concerns swelling of the ears induced by dinitrofluorobenzene. The following applies: sensitized mice, intraperitoneal administration.
The test system of data set [3] is granuloma formation. The following applies: mice, oral administration.
Data set [4] deals with delayed immune reaction. To be noted: intraperitoneal administration.
The subject of data set [5] is Trichomonas.
Data set [6] concerns anti-TBA antibody titer. The following applies: rabbits, intraperitoneal administration.
For data set [7], the system named is Entamoeba histolytica.

With `Cc1ncc([N+](=O)[O-])n1CCO` [metronidazole, 2-(2-methyl-5-nitroimidazol-1-yl)ethanol], the “action on leukocyte migration” value in data set [1] is reported as “inhibitory action on leukocyte migration”. In data set [2], the “swelling of the ears induced by dinitrofluorobenzene” value is on record as “inhibit swelling of the ears”. In data set [3], the “formation of granuloma by eggs of Schistosoma mansoni” value is “inhibited”. For the same molecule, the “delayed immune reaction to intravenous injection of ovine erythrocytes” value in data set [4] is “inhibits a delayed immune reaction”. Also, the anti-Trichomonas activity entry in data set [5] was “potent anti-Trichomonas activity”. Moreover, the “increases in anti-TBA antibody titer to TBA vaccine” value in data set [6] is given as “significantly inhibits”. For the same molecule, the “antimicrobial activity against Entamoeba histolytica” value in data set [7] is “strong antimicrobial activity”.

For the molecule `CCS(=O)(=O)CCn1c([N+](=O)[O-])cnc1C` [tinidazole, 1-(2-ethylsulfonylethyl)-2-methyl-5-nitroimidazole], the “action on leukocyte migration” value in data set [1] was “clearly exhibits inhibitory action of leukocyte migration”. Also, in data set [4], the “delayed immune reaction to intravenous injection of ovine erythrocytes” value is listed as “tends to inhibit delayed immune reaction”. Further, the anti-Trichomonas activity result in data set [5] is listed as “primarily has anti-Trichomonas activity”.
